# BindingDB's records for doi:10.1016/S1074-5521(00)00052-1 (Northwestern University, 2001)
# Molecular target: Beta-lactamase (Escherichia coli (strain K12), UniProt P00811)
# Test: Enzyme Inhibition Assay
# Conditions: pH 7
# Excerpt: Enzyme inhibition assay using AmpC or TEM-1 from escherichia coli.
# Beta-lactamase, sequence (P00811 whole entry): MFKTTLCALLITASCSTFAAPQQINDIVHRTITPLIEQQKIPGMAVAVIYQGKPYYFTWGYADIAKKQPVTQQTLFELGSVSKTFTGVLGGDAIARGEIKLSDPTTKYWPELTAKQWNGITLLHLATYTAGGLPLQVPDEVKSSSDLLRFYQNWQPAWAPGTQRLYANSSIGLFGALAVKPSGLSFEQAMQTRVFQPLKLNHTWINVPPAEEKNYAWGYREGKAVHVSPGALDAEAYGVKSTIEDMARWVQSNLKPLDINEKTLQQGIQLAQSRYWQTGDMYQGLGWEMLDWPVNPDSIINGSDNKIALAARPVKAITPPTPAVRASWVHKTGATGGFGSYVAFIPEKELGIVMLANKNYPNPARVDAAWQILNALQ
row,Compound,Ki [µM]
1,"O=C(Cc1ccccc1)NCB(O)O [Acylglycineboronic acid, 6]",0.57
2,"CC(Oc1ccccc1)C(=O)NCB(O)O (stereo unspecified) [Acylglycineboronic acid, 8]",0.3
3,"O=C(COc1ccccc1)NCB(O)O [Acylglycineboronic acid, 7]",0.7
4,"O=CNCB(O)O [Acylglycineboronic acid, 3]",4.8
5,OB(O)O [Boric acid],2800
6,"CC(=O)NCB(O)O [Acylglycineboronic acid, 5]",18.5
7,"CCOc1ccc2ccccc2c1C(=O)NCB(O)O [Acylglycineboronic acid, 10]",0.033
8,"O=C(CCl)NCB(O)O [Acylglycineboronic acid, 12]",0.24
9,CB(O)O [Methylboronic Acid],1000
10,"O=C(CSc1ccncc1)NCB(O)O [Acylglycineboronic acid, 13]",0.175
11,O=C(Cc1cccs1)NCB(O)O [N-2-THIOPHEN-2-YL-ACETAMIDE BORONIC ACID],0.32
